In patent publication US20250032623A1, “HETEROBIFUNCTIONAL COMPOUNDS AND THEIR USE IN TREATING DISEASE” (HALDA THERAPEUTICS OPCO, INC., priority 2021, published 2025):

Columns and labels:
KRAS G12C = target: T1, KRAS G12C (Homo sapiens, UniProt P01116, G12C); experiment: KRAS G12C nucleotide exchange assay (SOS1 mediated, HTRF); format: biochemical; conditions: 1 hr pre-incubation at RT, read-out: IC50 (inhibition of KRas G12C)
T1 construct: Kras (aa 2-169), GST; purchased Reaction Biology Corporation (RBC)
Protocol: Exemplary compounds were tested for ability to inhibit KRas G12C.
KRAS target engagement (IC50 determination) was performed using a KRAS G12C nucleotide exchange assay (Reaction Biology Corporation). Specifically, compounds were tested against KRAS G12C in 10-point concentration IC50 mode with 3-fold serial dilution at a starting concentration of 10 μM. ARS1620 was used as a control. Compounds were pre-incubated with protein for 1 hr at RT. Parameters for the assay were:
In the method, Kras was mixed with a-GST Tb antibody (1.5× solution) and […] was delivered to reaction wells. Compounds were delivered using acoustic dispenser (Echo, Labcyte). Kras/aGST-Tb Ab/compound mixture was incubated for 1 hour at room temperature. A 3× solution of SOS1 and GTP* was prepared in reaction buffer. A […] aliquot of SOS1/GTP* solution was added to reaction well to initiate the exchange reaction. No—SOS1 reaction or max compound concentration was used as blank. IC50 determination was performed using a Sigmoidal dose response (variable slope) equation.

HEK293 cells = experiment: Cellular growth inhibition assay (CellTiter-Glo), HEK293 cells; format: cell-based; conditions: Homo sapiens, 72 h, three days compound treatment, CellTiter-Glo 2.0, read-out: CTG HEK293 GI50
Method in brief: (§1)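 GI50 derived by four-parameter regression of luminescence (CellTiter-Glo 2.0) at Day 0 and Day 3, normalized to DMSO wells. Cells (HeLa, HEK293; 500/well, DMEM plus 10% FBS) were dosed with compound dilutions 24 h post-seeding and exposed for three days at 37 °C.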

HeLa cells = experiment: Cellular growth inhibition assay (CellTiter-Glo), HeLa cells; format: cell-based; conditions: Homo sapiens, 72 h, three days compound treatment, CellTiter-Glo 2.0, read-out: CTG HELA GI50
Method in brief: as §1

T1 sequence (P01116 2-169 isoform P01116-2 G12C): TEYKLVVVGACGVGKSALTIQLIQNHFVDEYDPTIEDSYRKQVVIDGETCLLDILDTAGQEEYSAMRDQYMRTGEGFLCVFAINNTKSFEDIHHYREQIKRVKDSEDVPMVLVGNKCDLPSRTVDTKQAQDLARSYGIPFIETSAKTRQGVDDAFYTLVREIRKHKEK

Q: With `C=C(F)C(=O)N1CCN(c2nc(OC[C@@H]3CCCN3CCCOCCOCCOCCOCCNC(=O)c3ccc(Nc4ncc5c(n4)N(C4CCCC4)[C@H](CC)C(=O)N5C)c(OC)c3)nc3c2CCN(c2cccc4cccc(Cl)c24)C3)C[C@@H]1CC#N` [Compound I-105, N-[2-[2-[2-[2-[3-[(2S)-2-[[7-(8-chloro-1-naphthyl)-4-[(3S)-3-(cyanomethyl)-4-(2-fluoroprop-2-enoyl)piperazin-1-yl]-6,8-dihydro-5H-pyrido[3,4-d]pyrimidin-2-yl]oxymethyl]pyrrolidin-1-yl]propoxy]ethoxy]ethoxy]ethoxy]ethyl]-4-[[(7R)-8-cyclopentyl-7-ethyl-5-methyl-6-oxo-7H-pteridin-2-yl]amino]-3-methoxy-benzamide] as the molecule, how does the IC50 (KRAS G12C) read?
A: < 100 nM

Q: What about the GI50 (HEK293 cells) of the same molecule?
A: 500 to 1500 nM

Q: Which IC50 (KRAS G12C) does the source give for `C=C(F)C(=O)N1CCN(c2nc(OC[C@@H]3CCCN3CCCOCCOCCNC(=O)c3ccc(Nc4ncc5c(n4)N(C4CCCC4)[C@H](CC)C(=O)N5C)c(OC)c3)nc3c2CCN(c2cccc4cccc(Cl)c24)C3)C[C@@H]1CC#N` [Compound I-103, N-[2-[2-[3-[(2S)-2-1[[7-(8-chloro-1-naphthyl)-4-[(3S)-3-(cyanomethyl)-4-(2-fluoroprop-2-enoyl)piperazin-1-yl]-6,8-dihydro-5H-pyrido1[3,4-d]pyrimidin-2-yl]oxymethyl]pyrrolidin-1-yl]propoxy]ethoxy]ethyl]-4-[1[(7R)-8-cyclopentyl-7-ethyl-5-methyl-6-oxo-7H-pteridin-2-yl]amino]-3-methoxy-benzamide] here?
A: < 100 nM

Q: And the GI50 (HEK293 cells)?
A: 500 to 1500 nM

Q: How did the IC50 (KRAS G12C) turn out when `C=C(F)C(=O)N1CCN(c2nc(OC[C@@H]3CCCN3CCCN(C)C(=O)N3N=C(c4cc(F)ccc4F)S[C@@]3(CCCN)c3ccccc3)nc3c2CCN(c2cccc4cccc(Cl)c24)C3)C[C@@H]1CC#N` [Compound I-97, (2S)-2-(3-aminopropyl)-N-[3-[(2S)-2-[[7-(8-chloro-1-naphthyl)-4-[(3S)-3-(cyanomethyl)-4-(2-fluoroprop-2-enoyl)piperazin-1-yl]-6,8-dihydro-SH-pyrido[3,4-d]pyrimidin-2-yl]oxymethyl]pyrrolidin-1-yl]propyl]-5-(2,5-difluorophenyl)-N-methyl-2-phenyl-1,3,4-thiadiazole-3-carboxamide] was run?
A: < 100 nM

Q: And the GI50 (HeLa cells)?
A: 500 to 1500 nM

Q: What does the source list for `C=C(F)C(=O)N1CCN(c2nc(OC[C@@H]3CCCN3CCCOCCOCCOCCNC(=O)c3ccc(Nc4ncc5c(n4)N(C4CCCC4)[C@H](CC)C(=O)N5C)c(OC)c3)nc3c2CCN(c2cccc4cccc(Cl)c24)C3)C[C@@H]1CC#N` [Compound I-104, N-[2-[2-[2-[3-[(2S)-2-[[7-(8-chloro-1-naphthyl)-4-[(3S)-3-(cyanomethyl)-4-(2-fluoroprop-2-enoyl)piperazin-1-yl]-6,8-dihydro-5H-pyrido[3,4-d]pyrimidin-2-yl]oxymethyl]pyrrolidin-1-yl]propoxy]ethoxy]ethoxy]ethyl]-4-[[(7R)-8-cyclopentyl-7-ethyl-5-methyl-6-oxo-7H-pteridin-2-yl]amino]-3-methoxy-benzamide]?
A: IC50 (KRAS G12C): < 100 nM; GI50 (HEK293 cells): 500 to 1500 nM

Q: Which results are given for `C=C(F)C(=O)N1CCN(c2nc(OC[C@@H]3CCCN3CCCNC(=O)c3ccc(Nc4ncc5c(n4)N(C4CCCC4)[C@H](CC)C(=O)N5C)c(OC)c3)nc3c2CCN(c2cccc4cccc(Cl)c24)C3)C[C@@H]1CC#N` [Compound I-102, N-[3-[(2S)-2-[[7-(8-chloro-1-naphthyl)-4-[(3S)-3-(cyanomethyl)-4-(2-fluoroprop-2-enoyl)piperazin-1-yl]-6,8-dihydro-5H-pyrido[3,4-d]pyrimidin-2-yl]oxymethyl]pyrrolidin-1-yl]propyl]-4-[[(7R)-8-cyclopentyl-7-ethyl-5-methyl-6-oxo-7H-pteridin-2-yl]amino]-3-methoxy-benzamide]?
A: IC50 (KRAS G12C): 100 to 1000 nM; GI50 (HEK293 cells): 500 to 1500 nM
